Assay results as given in US3954793A, “1-(2-Propynyl)-1 H-indazole compounds” (priority 1973, dated 1976).

Columns and labels:
[1] = test system: IN/WHO strain house flies; assay: topical application, percent kill after 24 hours, susceptible IN/WHO strain; assay type: in vivo, female); details: for percent kill after 24 hours, synergist alone: insecticide 0, synergist 1 μg/fly
Procedure, shortened: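 Insecticide plus synergist in acetone, 1.0 μl applied to the thorax of CO2-anesthetized 3-to-5-day-old female IN/WHO house flies, doses in μg/fly. Flies held 10 per dish, 3-5 dishes per treatment, with skim milk. Percent mortality scored after 24 h.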

[2] = test system: Swiss albino, white male mice; assay: acute toxicity and synergism of acute toxicity in mice; assay type: in vivo; details: for number of mice dead, with Dimetilan: 48 hours; for number of mice dead, with Dimetilan / number of mice dead, synergist alone: eight mice; for number of mice dead, with GS 13005: GS 13005 71 + synergist 213 mg/kg; for number of mice dead, with Methadone: Methadone 32 + synergist 215 mg/kg; for number of mice dead, with Secobarbital: Secobarbital 90 + synergist 215 mg/kg; for number of mice dead, synergist alone: synergist 1000 mg/kg i.p., Dimetilan 0, 72 hours
Procedure, shortened: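 Male Swiss albino mice (23 to 27 g, five to six weeks), eight per dose, dosed intraperitoneally in corn oil: dimetilan alone at 4 to 32 mg per kg, synergists alone at 1000 mg/kg with deaths counted at 72 hours. For synergism, synergist given 1 hour before insecticide, lethality observed for at least 6 hours.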

male mice = assay: extension of sleeping time of depressant drugs by synergists; assay type: in vivo, male mice (Swiss albino white); details: for Mean Sleeping Time, Noludar / Relative Sleeping Time, Noludar: Noludar 110 mg/kg; for Relative Sleeping Time, Noludar / Relative Sleeping Time, Secobarbital: treated/control; for Mean Sleeping Time, Secobarbital / Relative Sleeping Time, Secobarbital: Secobarbital 37 mg/kg
Procedure, shortened: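 Swiss albino male mice (~38 days, 25-30 g) given synergist at 74.0 or 110.0 mg/kg in corn oil 1 h before Secobarbital 37.0 mg/kg or Noludar 110.0 mg/kg in water. Sleeping time measured from drug dosing to righting-reflex recovery; relative sleeping time = treated ÷ drug-only control.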

[3] = Diazinon 0.03 + synergist 0.15 μg/fly
[4] = GS 13005 0.10 + synergist 0.50 μg/fly
[5] = Mobam 0.05 + synergist 0.25 μg/fly
[6] = Mobam 0.10 + synergist 0.50 μg/fly
[7] = Mobam 0.20 + synergist 1 μg/fly
[8] = Dimetilan 8 + synergist 80 mg/kg i.p.
[9] = Dimetilan 8 + synergist 240 mg/kg i.p.
[10] = synergist 110 mg/kg one hour prior
[11] = synergist 74 mg/kg one hour prior
[12] = Mobam 0.13 μg/fly, synergist/insecticide 0.5/1
[13] = Mobam 0.13 μg/fly, synergist/insecticide 1/1
[14] = Mobam 0.13 μg/fly, synergist/insecticide 5/1
[15] = Mobam 0.25 μg/fly, synergist/insecticide 0.5/1
[16] = Mobam 0.25 μg/fly, synergist/insecticide 1/1
[17] = Mobam 0.25 μg/fly, synergist/insecticide 2/1
[18] = Mobam 0.25 μg/fly, synergist/insecticide 5/1
[19] = Mobam 0.50 μg/fly, synergist/insecticide 0.5/1
[20] = Mobam 0.50 μg/fly, synergist/insecticide 1/1
[21] = Mobam 0.50 μg/fly, synergist/insecticide 2/1
[22] = Mobam 0.50 μg/fly, synergist/insecticide 5/1
[23] = Mobam 1.0 μg/fly, synergist/insecticide 0.5/1
[24] = Mobam 1.0 μg/fly, synergist/insecticide 1/1
[25] = Mobam 1.0 μg/fly, synergist/insecticide 2/1
[26] = Mobam 1.0 μg/fly, synergist/insecticide 5/1
[27] = Mobam 0.13 μg/fly, synergist/insecticide 2/1

| Structure (SMILES) | percent kill after 24 hours, with Diazinon [1, 3] | percent kill after 24 hours, with GS 13005 [1, 4] | percent kill after 24 hours, with Mobam [1, 5] | percent kill after 24 hours, with Mobam [1, 6] | percent kill after 24 hours, with Mobam [1, 7] | percent kill after 24 hours, synergist alone [1] | number of mice dead, with Dimetilan [2, 8] | number of mice dead, with Dimetilan [2, 9] | Mean Sleeping Time, Noludar (male mice; [10]) | Relative Sleeping Time, Noludar (male mice; synergist 110 mg/kg) | Mean Sleeping Time, Secobarbital (male mice; [11]) | Relative Sleeping Time, Secobarbital (male mice; synergist 74 mg/kg) | Mean Sleeping Time, Secobarbital (male mice; [10]) | Relative Sleeping Time, Secobarbital (male mice; synergist 110 mg/kg) | percent mortality 24 hours, with Mobam [1, 12] | percent mortality 24 hours, with Mobam [1, 13] | percent mortality 24 hours, with Mobam [1, 14] | percent mortality 24 hours, with Mobam [1, 15] | percent mortality 24 hours, with Mobam [1, 16] | percent mortality 24 hours, with Mobam [1, 17] | other results |
| --- | --- | --- | --- | --- | --- | --- | --- | --- | --- | --- | --- | --- | --- | --- | --- | --- | --- | --- | --- | --- | --- |
| C#CCON=Cc1cccc([N+](=O)[O-])c1 [I-B] | 22% | 73% | 0% | 0% | 73% | 0% | 1 | 6 | 70 min | 2.4 | 54 min | 1.5 | 106 min | 1.7 | – | – | – | – | – | – | percent kill after 24 hours, with GS 13005 ([1]; GS 13005 0.05 + synergist 0.25 μg/fly): 2%; percent kill after 24 hours, with GS 13005 ([1]; GS 13005 0.10 + synergist 0.125 μg/fly): 13%; percent kill after 24 hours, with GS 13005 ([1]; GS 13005 0.10 + synergist 0.25 μg/fly): 27%; percent kill after 24 hours, with Mobam ([1]; Mobam 0.20 + synergist 0.25 μg/fly): 13%; percent kill after 24 hours, with Mobam ([1]; Mobam 0.20 + synergist 0.50 μg/fly): 30% |
| C#CCON=C(C)c1ccc(Cl)cc1 [I-D] | 50% | – | 8% | 20% | 92% | 0% | 1 | 6 | 58 min | 1.5 | 62 min | 1.9 | 56 min | 1.7 | – | – | – | – | – | – | – |
| C#CCON=C(C)c1ccc2ccccc2c1 [I-F] | 24% | 45% | – | – | 47% | 0% | 0 | 4 | 55 min | 1.4 | 32 min | 1.1 | 70 min | 2.2 | – | – | – | – | – | – | – |
| C#CCON=Cc1ccc(Cl)cc1Cl [I-G] | – | – | – | – | – | 0% | – | 0 | 48 min | 1.2 | 27 min | 1.0 | 55 min | 1.7 | – | – | – | – | – | – | percent kill after 24 hours, with Diazinon ([1]; Diazinon 0.02 + synergist 0.10 μg/fly): 40% |
| C#CCON=Cc1cccc2ccccc12 [I-I] | – | – | – | – | – | – | 0 | 3 | 62 min | 2.1 | 31 min | 1.1 | 102 min | 1.7 | – | – | – | – | – | – | – |
| C#CCOCc1ccc(Cl)c(Cl)c1 [II-C] | 23% | – | 4% | 27% | 99% | 0% | – | 0 | 50 min | 1.3 | – | – | 33 min | 1.0 | – | – | – | – | – | – | – |
| C#CCOCc1ccc(Cl)c(Cl)c1Cl [II-D] | 40% | – | 10% | 50% | 100% | 0% | – | 0 | 46 min | 1.0 | – | – | 60 min | 1.2 | 7% | 17% | 50% | 30% | 63% | 83% | percent mortality 24 hours, with Mobam [1, 18]: 97%; percent mortality 24 hours, with Mobam [1, 19]: 57%; percent mortality 24 hours, with Mobam [1, 20]: 100%; percent mortality 24 hours, with Mobam [1, 21]: 97%; percent mortality 24 hours, with Mobam [1, 22]: 100%; percent mortality 24 hours, with Mobam [1, 23]: 97%; percent mortality 24 hours, with Mobam [1, 24]: 100%; percent mortality 24 hours, with Mobam [1, 25]: 100%; percent mortality 24 hours, with Mobam [1, 26]: 100%; number of mice dead, with GS 13005 [2]: 3; number of mice dead, with Methadone [2]: 2; number of mice dead, with Secobarbital [2]: 1; number of mice dead, synergist alone [2]: 0 |
| C#CCOCc1c(Cl)ccc(Cl)c1Cl [II-E] | 45% | – | 5% | 33% | 100% | 0% | – | 0 | 45 min | 1.1 | – | – | 44 min | 1.4 | 30% | 27% | 40% | 53% | 77% | 73% | percent mortality 24 hours, with Mobam [1, 27]: 17%; percent mortality 24 hours, with Mobam [1, 18]: 67%; percent mortality 24 hours, with Mobam [1, 19]: 97%; percent mortality 24 hours, with Mobam [1, 20]: 97%; percent mortality 24 hours, with Mobam [1, 21]: 93%; percent mortality 24 hours, with Mobam [1, 22]: 100%; percent mortality 24 hours, with Mobam [1, 23]: 100%; percent mortality 24 hours, with Mobam [1, 24]: 100%; percent mortality 24 hours, with Mobam [1, 25]: 100%; percent mortality 24 hours, with Mobam [1, 26]: 100% |
| C#CCOCc1cc(Cl)c(Cl)cc1Cl [II-F] | – | – | – | – | – | – | – | 0 | 38 min | 1.3 | – | – | 46 min | 1.0 | 3% | 10% | 23% | 33% | 57% | 27% | percent mortality 24 hours, with Mobam [1, 27]: 0%; percent mortality 24 hours, with Mobam [1, 18]: 73%; percent mortality 24 hours, with Mobam [1, 19]: 70%; percent mortality 24 hours, with Mobam [1, 20]: 83%; percent mortality 24 hours, with Mobam [1, 21]: 80%; percent mortality 24 hours, with Mobam [1, 22]: 97%; percent mortality 24 hours, with Mobam [1, 23]: 100%; percent mortality 24 hours, with Mobam [1, 24]: 93%; percent mortality 24 hours, with Mobam [1, 25]: 93%; percent mortality 24 hours, with Mobam [1, 26]: 100% |
| C#CCOCc1c(Cl)cccc1Cl [II-H] | – | 100% | – | – | 100% | 10% | 0 | 6 | 68 min | 2.2 | 44 min | 1.4 | 51 min | 2.1 | – | – | – | – | – | – | percent kill after 24 hours, synergist alone (GS 13005 part of Table XXXI) ([1]; GS 13005 0, synergist 1 μg/fly): 10%; number of mice dead, with GS 13005 [2]: 7; number of mice dead, with Methadone [2]: 4; number of mice dead, with Secobarbital [2]: 0; number of mice dead, synergist alone [2]: 0 |
